Experimental data: patent publication US8247211B2, “Glycopeptide antibiotics” (American Cyanamid Company, priority 2001, dated 2012)

Tests used:
Enterococcus sp. = assay: In vitro antibacterial evaluation: minimum inhibitory concentration (MIC), broth dilution method; format: cell-based
In short: (§1)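 NCCLS M7-A2 broth dilution with Mueller-Hinton II, testing 64-0.06 μg/mL antibiotic against 5×10^5 CFU/mL inocula. Test strains include recent methicillin-, penicillin- or vancomycin-resistant clinical isolates. MIC is the lowest concentration preventing growth.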

Escherichia coli = assay: as above; format: cell-based
In short: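 MIC read as lowest drug level preventing visible growth. Organisms at 5×10^5 CFU/mL were exposed to a 64-0.06 μg/mL dilution series in Muller-Hinton II […] following NCCLS broth dilution standard M7-A2.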

Staphylococcus sp. = assay: as above; format: cell-based; conditions: 18 hours at 35° C.
In short: as §1

Streptococcus sp. = assay: as above; format: cell-based
In short: as §1

[1] = system: Staphylococcus aureus-SMITH (GC 4543); assay: Acute lethal infection in mice (ED50); format: in vivo; conditions: female CD-1 mice, intraperitoneal challenge, intravenous dose 30 min. after infection, 7 day survival ratios
In short: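 Female CD-1 mice (20 ± 1-2 g) were infected intraperitoneally with enough bacteria, suspended in Trypticase Soy Broth or hog gastric mucin, to kill untreated controls within 24-48 hr. Compound in saline or 5% dextrose was given intravenously 30 min after infection. ED50 came from pooled 7-day survival over 3 tests.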

[2] = Anatomic pathology (heart and kidney histopathology) in mice; format: in vivo, CD-1 mice; conditions: 20 mg/kg intravenously daily for 9 days, microscopic histopathology on day 10
In short: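 Juvenile CD-1 mice (20 days old; 5 vehicle, 5 treated) received glycopeptide antibiotic 20 mg/kg i.v. daily for 9 days. Necropsied tissues formalin-fixed, paraffin-embedded, H&E stained and examined microscopically; findings graded slight to severe versus controls.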

[3] = broth dilution, inoculum 5×10^5 CFU/mL, 18 hours at 35° C.

CC(c1ccccc1)C1NC(=O)CNC(=O)C(CO)NC(=O)C(C(O)C2CNC(=N)N2C2OC(CO)C(O)C(O)C2O)NC(=O)C(C(O)C2CNC(=N)N2)NC(=O)C(Cc2ccc(OC3OC(CO)C(OC4OC5COC(c6ccc(C(=O)O)cc6)OC5C(O)C4O)C(O)C3O)cc2)NC1=O (stereo not drawn) [Example 141, Cyclo[glycyl-β-methylphenylalanyl-O-[4-O-[4,6-O-(4-carboxybenzylidene)hexopyranosyl]-hexopyranosyl]tyrosyl-3-(2-iminoimidazolidin-4-yl)seryl-3-(3-hexopyranosyl-2-iminoimidazolidin-4-yl)serylseryl]]
+++: Anatomical Pathology (Day 10), Kidney [2]
64 µg/mL: MIC Enterococcus faecium (GC 4557) (Enterococcus sp.; strain GC 4557)
0: Anatomical Pathology (Day 10), Heart [2]
>8: median effective dose (ED50), Staphylococcus aureus-SMITH (GC 4543) [1]
>64 µg/mL: MIC Enterococcus faecalis (ATCC 29212) (Enterococcus sp.; strain ATCC 29212) | MIC Enterococcus faecalis (GC 2242) (Enterococcus sp.; strain GC 2242) | MIC Enterococcus faecium (GC 2243) (Enterococcus sp.; strain GC 2243) | MIC Enterococcus faecalis (GC 2691) (Enterococcus sp.; strain GC 2691) | MIC Enterococcus faecalis (GC 3059) (Enterococcus sp.; strain GC 3059) | MIC Enterococcus faecalis (GC 4552) (Enterococcus sp.; strain GC 4552) | MIC Enterococcus faecalis (GC 4553) (Enterococcus sp.; strain GC 4553) | MIC Enterococcus faecalis (GC 4554) (Enterococcus sp.; strain GC 4554) | MIC Enterococcus faecium (GC 4556) (Enterococcus sp.; strain GC 4556) | MIC Enterococcus avium (GC 4558) (Enterococcus sp.; strain GC 4558) | MIC Enterococcus faecalis (GC 6189) (Enterococcus sp.; strain GC 6189) | MIC Escherichia coli (ATCC 25922) (Escherichia coli; strain ATCC 25922) | MIC Escherichia coli (GC 4559) (Escherichia coli; strain GC 4559) | MIC Escherichi coli (GC 4560) (Escherichia coli; strain GC 4560) | MIC Coagulase Negative Staphylococcus (GC 4547) (Staphylococcus sp.; broth dilution, 5×10^5 CFU/mL) | MIC Coagulase Negative Staphylococcus (GC 4548) (Staphylococcus sp.; broth dilution, 5×10^5 CFU/mL) | MIC Coagulase Negative Staphylococcus (GC 4549) (Staphylococcus sp.; broth dilution, 5×10^5 CFU/mL) | MIC Coagulase Negative Staphylococcus (GC 4551) (Staphylococcus sp.; broth dilution, 5×10^5 CFU/mL) | MIC Coagulase Negative Staphylococcus (GC 6257) (Staphylococcus sp.; broth dilution, 5×10^5 CFU/mL) | MIC Staphylococcus aureus (ATCC 29213) (Staphylococcus sp.; broth dilution, 5×10^5 CFU/mL) | MIC Staphylococcus aureus (GC 1131) (Staphylococcus sp.; broth dilution, 5×10^5 CFU/mL) | MIC Staphylococcus aureus (GC 3051) (Staphylococcus sp.; broth dilution, 5×10^5 CFU/mL) | MIC Staphylococcus aureus (GC 3053) (Staphylococcus sp.; broth dilution, 5×10^5 CFU/mL) | MIC Staphylococcus aureus (GC 4541) (Staphylococcus sp.; broth dilution, 5×10^5 CFU/mL) | MIC Staphylococcus aureus (GC 4542) (Staphylococcus sp.; broth dilution, 5×10^5 CFU/mL) | MIC Staphylococcus aureus (GC 4544) (Staphylococcus sp.; broth dilution, 5×10^5 CFU/mL) | MIC Staphylococcus aureus (GC 4545) (Staphylococcus sp.; broth dilution, 5×10^5 CFU/mL) | MIC Staphylococcus aureus-SMITH (GC 4543) (Staphylococcus sp.; broth dilution, 5×10^5 CFU/mL) | MIC Staphylococcus haemolyticus (GC 4546) (Staphylococcus sp.; broth dilution, 5×10^5 CFU/mL) | MIC Staphylococcus aureus (ATCC 29213) (Staphylococcus sp.; strain ATCC 29213, broth dilution) | MIC Staphylococcus aureus (GC 1131) (Staphylococcus sp.; strain GC 1131, broth dilution) | MIC Staphylococcus aureus (GC 3051) (Staphylococcus sp.; strain GC 3051, broth dilution) | MIC Staphylococcus aureus (GC 3053) (Staphylococcus sp.; strain GC 3053, broth dilution) | MIC Staphylococcus aureus (GC 4541) (Staphylococcus sp.; strain GC 4541, broth dilution) | MIC Staphylococcus aureus (GC 4542) (Staphylococcus sp.; strain GC 4542, broth dilution) | MIC Staphylococcus aureus-SMITH (GC 4543) (Staphylococcus sp.; strain GC 4543, broth dilution) | MIC Staphylococcus aureus (GC 4544) (Staphylococcus sp.; strain GC 4544, broth dilution) | MIC Staphylococcus aureus (GC 4545) (Staphylococcus sp.; strain GC 4545, broth dilution) | MIC Staphylococcus haemolyticus (GC 4546) (Staphylococcus sp.; strain GC 4546, broth dilution) | MIC Coagulase Negative Staphylococcus (GC 4547) (Staphylococcus sp.; strain GC 4547, broth dilution) | MIC Coagulase Negative Staphylococcus (GC 4548) (Staphylococcus sp.; strain GC 4548, broth dilution) | MIC Coagulase Negative Staphylococcus (GC 4549) (Staphylococcus sp.; strain GC 4549, broth dilution) | MIC Coagulase Negative Staphylococcus (GC 4551) (Staphylococcus sp.; strain GC 4551, broth dilution) | MIC Coagulase Negative Staphylococcus (GC 6257) (Staphylococcus sp.; strain GC 6257, broth dilution) | MIC Streptococcus pneumoniae (ATCC 6301) (Streptococcus sp.; strain ATCC 6301) | MIC Streptococcus pneumoniae (GC 1894) (Streptococcus sp.; strain GC 1894) | MIC Streptococcus pyogenes (GC 4563) (Streptococcus sp.; strain GC 4563) | MIC Streptococcus agalactiae (GC 4564) (Streptococcus sp.; strain GC 4564) | MIC Streptococcus pneumoniae (GC 4565) (Streptococcus sp.; strain GC 4565)

COc1ccc2cc(COCC3OC(OC4C(CO)OC(Oc5ccc(CC6NC(=O)C(C(C)c7ccccc7)NC(=O)CNC(=O)C(CO)NC(=O)C(C(O)C7CNC(=N)N7C7OC(CO)C(O)C(O)C7O)NC(=O)C(C(O)C7CNC(=N)N7)NC6=O)cc5)C(O)C4O)C(O)C(O)C3O)ccc2c1 (stereo not drawn) [Example 230, Cyclo[glycyl-β-methylphenylalanyl-O-[4-O-[6-O-[(6-methoxy-2-naphthyl)methyl]hexopyranosyl]hexopyranosyl]tyrosyl-3-(2-iminoimidazolidin-4-yl)seryl-3-(3-hexopyranosyl-2-iminoimidazolidin-4-yl)serylseryl]]
0.25 µg/mL: MIC Streptococcus pyogenes (GC 4563) (Streptococcus sp.; Streptococcus pyogenes (GC 4563), 18 hours at 35° C.) | MIC Streptococcus pyogenes (GC 4563) (Streptococcus sp.; [3])
0.12 µg/mL: MIC Streptococcus pneumoniae (ATCC 6301) (Streptococcus sp.; Streptococcus pneumoniae (ATCC 6301), 18 hours at 35° C.) | MIC Streptococcus pneumoniae (GC 4565) (Streptococcus sp.; Streptococcus pneumoniae (GC 4565), 18 hours at 35° C.) | MIC Streptococcus pneumoniae (ATCC 6301) (Streptococcus sp.; [3]) | MIC Streptococcus pneumoniae (GC 4565) (Streptococcus sp.; [3])
4 µg/mL: MIC Enterococcus faecalis (GC 2691) (Enterococcus sp.; Enterococcus faecalis (GC 2691), 18 hours at 35° C.) | MIC Enterococcus faecalis (GC 6189) (Enterococcus sp.; Enterococcus faecalis (GC 6189), 18 hours at 35° C.) | MIC Enterococcus faecalis (GC 2691) (Enterococcus sp.; [3]) | MIC Enterococcus faecalis (GC 6189) (Enterococcus sp.; [3])
0: Anatomical Pathology (Day 10), Heart [2]
<0.06 µg/mL: MIC Streptococcus pneumoniae (GC 1894) (Streptococcus sp.; Streptococcus pneumoniae (GC 1894), 18 hours at 35° C.) | MIC Streptococcus pneumoniae (GC 1894) (Streptococcus sp.; [3])
8 µg/mL: MIC Enterococcus avium (GC 4558) (Enterococcus sp.; Enterococcus avium (GC 4558), 18 hours at 35° C.) | MIC Enterococcus faecalis (ATCC 29212) (Enterococcus sp.; Enterococcus faecalis (ATCC 29212), 18 hours at 35° C.) | MIC Enterococcus faecalis (GC 2242) (Enterococcus sp.; Enterococcus faecalis (GC 2242), 18 hours at 35° C.) | MIC Enterococcus faecalis (GC 3059) (Enterococcus sp.; Enterococcus faecalis (GC 3059), 18 hours at 35° C.) | MIC Enterococcus faecalis (GC 4552) (Enterococcus sp.; Enterococcus faecalis (GC 4552), 18 hours at 35° C.) | MIC Enterococcus faecalis (GC 4553) (Enterococcus sp.; Enterococcus faecalis (GC 4553), 18 hours at 35° C.) | MIC Enterococcus faecalis (GC 4554) (Enterococcus sp.; Enterococcus faecalis (GC 4554), 18 hours at 35° C.) | MIC Enterococcus faecium (GC 2243) (Enterococcus sp.; Enterococcus faecium (GC 2243), 18 hours at 35° C.) | MIC Enterococcus faecium (GC 4556) (Enterococcus sp.; Enterococcus faecium (GC 4556), 18 hours at 35° C.) | MIC Enterococcus avium (GC 4558) (Enterococcus sp.; [3]) | MIC Enterococcus faecalis (ATCC 29212) (Enterococcus sp.; [3]) | MIC Enterococcus faecalis (GC 2242) (Enterococcus sp.; [3]) | MIC Enterococcus faecalis (GC 3059) (Enterococcus sp.; [3]) | MIC Enterococcus faecalis (GC 4552) (Enterococcus sp.; [3]) | MIC Enterococcus faecalis (GC 4553) (Enterococcus sp.; [3]) | MIC Enterococcus faecalis (GC 4554) (Enterococcus sp.; [3]) | MIC Enterococcus faecium (GC 2243) (Enterococcus sp.; [3]) | MIC Enterococcus faecium (GC 4556) (Enterococcus sp.; [3])
1 µg/mL: MIC Escherichia coli (GC 4560) (Escherichia coli; Escherichia coli (GC 4560), 18 hours at 35° C.) | MIC Coagulase Negative Staphylococcus (GC 4547) (Staphylococcus sp.; Coagulase Negative Staphylococcus (GC 4547)) | MIC Coagulase Negative Staphylococcus (GC 4549) (Staphylococcus sp.; Coagulase Negative Staphylococcus (GC 4549)) | MIC Staphylococcus aureus (GC 4541) (Staphylococcus sp.; Staphylococcus aureus (GC 4541)) | MIC Staphylococcus aureus (GC 4545) (Staphylococcus sp.; Staphylococcus aureus (GC 4545)) | MIC Staphylococcus aureus-SMITH (GC 4543) (Staphylococcus sp.; Staphylococcus aureus-SMITH (GC 4543)) | MIC Staphylococcus haemolyticus (GC 4546) (Staphylococcus sp.; Staphylococcus haemolyticus (GC 4546))
>64 µg/mL: MIC Escherichia coli (GC 4559) (Escherichia coli; Escherichia coli (GC 4559), 18 hours at 35° C.)
2 µg/mL: MIC Enterococcus faecium (GC 4557) (Enterococcus sp.; Enterococcus faecium (GC 4557), 18 hours at 35° C.) | MIC Enterococcus faecium (GC 4557) (Enterococcus sp.; [3]) | MIC Coagulase Negative Staphylococcus (GC 4551) (Staphylococcus sp.; Coagulase Negative Staphylococcus (GC 4551)) | MIC Staphylococcus aureus (ATCC 29213) (Staphylococcus sp.; Staphylococcus aureus (ATCC 29213)) | MIC Staphylococcus aureus (GC 1131) (Staphylococcus sp.; Staphylococcus aureus (GC 1131)) | MIC Staphylococcus aureus (GC 3051) (Staphylococcus sp.; Staphylococcus aureus (GC 3051)) | MIC Staphylococcus aureus (GC 3053) (Staphylococcus sp.; Staphylococcus aureus (GC 3053)) | MIC Staphylococcus aureus (GC 4542) (Staphylococcus sp.; Staphylococcus aureus (GC 4542)) | MIC Staphylococcus aureus (GC 4544) (Staphylococcus sp.; Staphylococcus aureus (GC 4544))
64 µg/mL: MIC Escherichia coli (ATCC 25922) (Escherichia coli; Escherichia coli (ATCC 25922), 18 hours at 35° C.)
+++: Anatomical Pathology (Day 10), Kidney [2]
0.5 µg/mL: MIC Coagulase Negative Staphylococcus (GC 4548) (Staphylococcus sp.; Coagulase Negative Staphylococcus (GC 4548)) | MIC Coagulase Negative Staphylococcus (GC 6257) (Staphylococcus sp.; Coagulase Negative Staphylococcus (GC 6257)) | MIC Streptococcus agalactiae (GC 4564) (Streptococcus sp.; Streptococcus agalactiae (GC 4564), 18 hours at 35° C.) | MIC Streptococcus agalactiae (GC 4564) (Streptococcus sp.; [3])
0.12 mg/kg: median effective dose (ED50), Staphylococcus aureus-SMITH (GC 4543) [1]
